Results on 77 sequences are retold here after the supplement of paper PMC11208160.
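Note: IS621 recombinase and bridge RNA in Escherichia coli cells.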

A short description of this series: recombinant barcode read abundance after kanamycin selection (control-corrected) (log10(CPM+1)); higher = more efficient recombination; sequences stand for … in AGTGCAGAGAAAATCGGCCAGTTTTCTCTGCCTGCAGTCCGCATGCCGT…AGATTTATGCAGCGGACTGCCTTTCTCCCAAAGTGATAAACCGGACAGTATCATGGACCGGTTTTCCCGGTAATCCGTATTTGCAAGGTTGGTTTCACT; site = the 11-nt target. In a few lines: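 Duplicate cultures were plated either on chloramphenicol/ampicillin LB agar, serving as control, or on chloramphenicol/ampicillin/kanamycin with 0.1 mM IPTG. These came from a pooled E. coli library co-electroporated with a donor plasmid, each member pairing a target with an IS621 bridge RNA target-binding loop. Recombination efficiency equals averaged, control-corrected counts per million of recombinant-junction barcodes. It is listed as log10(CPM+1).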
With “GATCGATCTTGGGTTCTAACCTGTTGCAT (site GATCGATCTAG)”, the “recombinant barcode read abundance (log10)” value is 0.307.
With “GATCGATCTTGGGTTCTAACCTGTTGCAT (site GATCGATCTAT)”, the “recombinant barcode read abundance (log10)” value was found to be 0.666.
As to “GATGAGACTTGGGTTCTAACCTGTTGCCG (site GATGAGACTCG)”, the “recombinant barcode read abundance (log10)” value came out at 2.22.
The same measure for “GATGAGACTTGGGTTCTAACCTGTTGCCG (site GCTGAGACTCG)”: 0.223.
With “GATGAGTCTTGGGTTCTAACCTGTTGCCT (site GATGAGTCTAA)”, the “recombinant barcode read abundance (log10)” value stood at 0.71.
With “GATGAGTCTTGGGTTCTAACCTGTTGCCT (site GATGAGTCTAG)”, the “recombinant barcode read abundance (log10)” value was 1.9.
The same measure for “GATGCCTCTTGGGTTCTAACCTGTTGCCT (site GAAGCATCTAG)”: 0.147; for “GATGCCTCTTGGGTTCTAACCTGTTGCCT (site GATGCCTCTAG)”: 2.06; for “GATGCGACTTGGGTTCTAACCTGTTGCCG (site GATGCGACTCG)”: 0.968.
With “GATGCGACTTGGGTTCTAACCTGTTGCCG (site GATGTGACTAG)” the figure was 0.121; with “GATGCTACTTGGGTTCTAACCTGTTGCCA (site GATCCTACTTG)”, 0.124; with “GATGCTACTTGGGTTCTAACCTGTTGCCA (site GATGCTACTTG)”, 0.0236.
With “GATGCTTCTTGGGTTCTAACCTGTTGCTT (site AATGCTTCTAA)” the figure was 0.101; with “GATGCTTCTTGGGTTCTAACCTGTTGCTT (site GATGCTTCTAA)”, 0.223.
In the case of “GATGGACCTTGGGTTCTAACCTGTTGCTA (site ATGTCTGCTAG)”, the “recombinant barcode read abundance (log10)” value turned out to be 0.0118.
As for “GATGGACCTTGGGTTCTAACCTGTTGCTA (site GATGGACCTTA)”, the “recombinant barcode read abundance (log10)” value stood at 2.39.
Regarding “GATGGCCCTTGGGTTCTAACCTGTTGCCT (site GATGGCCCTAG)”, the “recombinant barcode read abundance (log10)” value is 1.23.
With “GATGGCCCTTGGGTTCTAACCTGTTGCCT (site GCTGGCCCTAG)” the figure was 0.103; with “GATGGCCCTTGGGTTCTAACCTGTTGCCT (site GGTGGCCCTAG)”, 0.113; with “GATGGCCCTTGGGTTCTAACCTGTTGCCT (site GTTGGCCCTAG)”, 0.127.
Turning to “GATGGGCCTTGGGTTCTAACCTGTTGCGT (site GATGGGCCTAC)”, the “recombinant barcode read abundance (log10)” value was 2.54.
As to “GATGGGCCTTGGGTTCTAACCTGTTGCGT (site GCTGGGCCTTC)”, the “recombinant barcode read abundance (log10)” value is 0.246.
Turning to “GATGTACCTTGGGTTCTAACCTGTTGCCT (site AATGTACCTAG)”, the “recombinant barcode read abundance (log10)” value was 0.984.
Consider “GATGTACCTTGGGTTCTAACCTGTTGCCT (site CATGTACCTAG)”, for which the “recombinant barcode read abundance (log10)” value was found to be 0.43.
As to “GATGTACCTTGGGTTCTAACCTGTTGCCT (site GATGTACCTAG)”, the “recombinant barcode read abundance (log10)” value was 1.7.
With “GATGTACCTTGGGTTCTAACCTGTTGCCT (site TATGTACCTAG)” the figure was 1.06; with “GATGTGACTTGGGTTCTAACCTGTTGCCT (site GATGCGACTCG)”, 0.182.
For the sequence “GATGTGACTTGGGTTCTAACCTGTTGCCT (site GATGTGACTAG)”, the “recombinant barcode read abundance (log10)” value is 2.3.
Turning to “GATTAGACTTGGGTTCTAACCTGTTGCCT (site AATTAGACTAG)”, the “recombinant barcode read abundance (log10)” value was found to be 0.308.
In the case of “GATTAGACTTGGGTTCTAACCTGTTGCCT (site CATTAGACTAG)”, the “recombinant barcode read abundance (log10)” value is 0.0591.
For “GATTAGACTTGGGTTCTAACCTGTTGCCT (site GATTAGACTAG)”, the “recombinant barcode read abundance (log10)” value came to 1.09.
The same measure for “GATTAGACTTGGGTTCTAACCTGTTGCCT (site TATTAGACTAG)”: 0.331; for “GATTCACCTTGGGTTCTAACCTGTTGCCT (site AATTCACCTAG)”: 0.543.
The same measure for “GATTCACCTTGGGTTCTAACCTGTTGCCT (site CATTCACCTAG)”: 0.0425; for “GATTCACCTTGGGTTCTAACCTGTTGCCT (site GATTCACCTAG)”: 0.739.
As for “GATTCACCTTGGGTTCTAACCTGTTGCCT (site TATTCACCTAG)”, the “recombinant barcode read abundance (log10)” value was found to be 0.274.
With “GATTTCTCTTGGGTTCTAACCTGTTGCCT (site AATTTCTCTAG)”, the “recombinant barcode read abundance (log10)” value was 0.104.
With “GATTTCTCTTGGGTTCTAACCTGTTGCCT (site CATTTCTCTAG)”, the “recombinant barcode read abundance (log10)” value amounted to 0.0742.
With “GATTTCTCTTGGGTTCTAACCTGTTGCCT (site GATTTCTCTAG)” the figure was 0.228; with “GATTTCTCTTGGGTTCTAACCTGTTGCCT (site TATTTCTCTAG)”, 0.124.
As for “GCAAGATCTTGGGTTCTAACCTGTTGCCT (site GCAAGATCTAG)”, the “recombinant barcode read abundance (log10)” value worked out at 1.36.
With “GCAAGATCTTGGGTTCTAACCTGTTGCCT (site GCAGGGTCTAG)” the figure was 0.0113; with “GCAATGACTTGGGTTCTAACCTGTTGCCT (site GAAATGACTAG)”, 0.
For the sequence “GCAATGACTTGGGTTCTAACCTGTTGCCT (site GCAATGACTAG)”, the “recombinant barcode read abundance (log10)” value turned out to be 1.88.
For the sequence “GCAATGACTTGGGTTCTAACCTGTTGCCT (site GGAATGACTAG)”, the “recombinant barcode read abundance (log10)” value worked out at 0.105.
With “GCAATGACTTGGGTTCTAACCTGTTGCCT (site GTAATGACTAG)” the figure was 0.292; with “GCAATGTCTTGGGTTCTAACCTGTTGCCT (site GAAATGTCTAG)”, 0.104.
The same measure for “GCAATGTCTTGGGTTCTAACCTGTTGCCT (site GCAATGTCTAG)”: 1.42; for “GCAATGTCTTGGGTTCTAACCTGTTGCCT (site GGAATGTCTAG)”: 0.239; for “GCAATGTCTTGGGTTCTAACCTGTTGCCT (site GTAATGTCTAG)”: 0.443.
With “GCACACCCTTGGGTTCTAACCTGTTGCCT (site CCACATCCTAG)” the figure was 0.0345; with “GCACACCCTTGGGTTCTAACCTGTTGCCT (site GCACACCCTAG)”, 1.1; with “GCACATCCTTGGGTTCTAACCTGTTGCGT (site GCAAATCCTAG)”, 0.154.
For the sequence “GCACATCCTTGGGTTCTAACCTGTTGCGT (site GCACATCCTAC)”, the “recombinant barcode read abundance (log10)” value amounted to 2.53.
For the sequence “GCACCTGCTTGGGTTCTAACCTGTTGCCT (site GCACCTGCTAG)”, the “recombinant barcode read abundance (log10)” value came out at 1.61.
The same measure for “GCACCTGCTTGGGTTCTAACCTGTTGCCT (site TATTTGCCTCA)”: 0.238.
With “GCACGCTCTTGGGTTCTAACCTGTTGCCT (site GCACACTCTAG)” the figure was 0.607; with “GCACGCTCTTGGGTTCTAACCTGTTGCCT (site GCACCCTCTAG)”, 0.192.
The same measure for “GCACGCTCTTGGGTTCTAACCTGTTGCCT (site GCACGCTCTAG)”: 1.55; for “GCACGCTCTTGGGTTCTAACCTGTTGCCT (site GCACTCTCTAG)”: 0.12.
As to “GCACTCTCTTGGGTTCTAACCTGTTGCCT (site GCACACTCTAG)”, the “recombinant barcode read abundance (log10)” value was 0.0251.
As to “GCACTCTCTTGGGTTCTAACCTGTTGCCT (site GCACCCTCTAG)”, the “recombinant barcode read abundance (log10)” value is 0.568.
With “GCACTCTCTTGGGTTCTAACCTGTTGCCT (site GCACGCTCTAG)” the figure was 0.101.
With “GCACTCTCTTGGGTTCTAACCTGTTGCCT (site GCACTCTCTAG)” the figure was 1.58.
Turning to “GCATCCACTTGGGTTCTAACCTGTTGCCT (site GCATCCACTAG)”, the “recombinant barcode read abundance (log10)” value is 0.938.
The same measure for “GCATCCACTTGGGTTCTAACCTGTTGCCT (site GCGTCCACTAG)”: 0.0333; for “GCATCTACTTGGGTTCTAACCTGTTGCCT (site GAATCTACTAG)”: 0.101; for “GCATCTACTTGGGTTCTAACCTGTTGCCT (site GCATCTACTAG)”: 0.136.
With “GCATCTACTTGGGTTCTAACCTGTTGCCT (site GGATCTACTAG)” the figure was 0.059; with “GCATCTACTTGGGTTCTAACCTGTTGCCT (site GTATCTACTAG)”, 0.2.
Regarding “GCATCTCCTTGGGTTCTAACCTGTTGCCT (site ACATCTCCTAG)”, the “recombinant barcode read abundance (log10)” value was 0.4.
The same measure for “GCATCTCCTTGGGTTCTAACCTGTTGCCT (site CCATCTCCTAG)”: 0.103.
Turning to “GCATCTCCTTGGGTTCTAACCTGTTGCCT (site GCATCTCCTAG)”, the “recombinant barcode read abundance (log10)” value was found to be 1.06.
On to “GCATCTCCTTGGGTTCTAACCTGTTGCCT (site TCATCTCCTAG)”, for which the “recombinant barcode read abundance (log10)” value worked out at 0.0491.
With “GCATGAGCTTGGGTTCTAACCTGTTGCCT (site GCATGAGCTAG)” the figure was 2.09; with “GCATGAGCTTGGGTTCTAACCTGTTGCCT (site GCCTGAGCTAG)”, 0.122; with “GCATGAGCTTGGGTTCTAACCTGTTGCCT (site GCGTGAGCTAG)”, 0.136.
